Measurements as given in the supplement of paper PMC11451515.

Key:
Settings in all cases: 48 h
[1] = test system: NOMO1; assay: AUC of viability dose-response curve (% viability x log10 dose units); higher = less sensitive
Method in brief: (§1)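 Library compounds in DMSO were applied for 48 h at 37°C at 11 threefold doses (47 μM to 0.79 nM) to medium-adapted leukemia cells in 1536-well plates holding 500 or 1000 cells/well. Luminescence from CellTiter-Glo One was normalised plate by plate against DMSO and cell-free wells. Area under the curve came from trapezoidal integration of a log-logistic fit, after scaling curves that rose above full viability and discarding those that failed quality control. The fit had four parameters and used log10 doses.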

[2] = test system: P12-Ichikawa; assay: as above
Method in brief: as §1

[3] = test system: SEM cells; assay: as above
Method in brief: as §1

[4] = test system: SEM cells; assay: cell viability relative to DMSO control; higher = less cytotoxic
Method in brief: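 Cells were incubated for 48 h at 37°C before CellTiter-Glo One luminescence was read. The cells were NOMO1 or SEM (500 cells/well) or P12-Ichikawa (1000 cells/well) leukemia cells, adapted for at least four passages in each medium and seeded in 1536-well plates (5 μl). Dosing used library compounds in DMSO applied by pin over 11 threefold points, 47 μM to 0.79 nM. Viability is the per-plate percentage of DMSO wells, with cell-free wells as background.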

[5] = RPMI 5 mM glucose + 10% dialyzed FBS
[6] = HPLM + 10% dialyzed FBS, 0.000781 µM
[7] = HPLM + 10% dialyzed FBS, 0.00234 µM
[8] = HPLM + 10% dialyzed FBS, 0.00702 µM
[9] = HPLM + 10% dialyzed FBS, 0.0211 µM
[10] = HPLM + 10% dialyzed FBS, 0.0632 µM
[11] = HPLM + 10% dialyzed FBS, 0.19 µM
[12] = HPLM + 10% dialyzed FBS, 0.569 µM
[13] = HPLM + 10% dialyzed FBS, 1.71 µM
[14] = HPLM + 10% dialyzed FBS, 5.12 µM
[15] = HPLM + 10% dialyzed FBS, 15.4 µM
[16] = HPLM + 10% dialyzed FBS, 46.1 µM

## CN(C)CCCN\C1=C\2C(=O)N(C)C(=O)\N=C2N(C)C3=C1C=CC=C3
[1]; HPLM + 10% dialyzed FBS
  AUC of viability dose-response curve: 446
[1]; RPMI 5 mM glucose + 10% FBS
  AUC of viability dose-response curve: 446
[1]; [5]
  AUC of viability dose-response curve: 432
[2]; HPLM + 10% dialyzed FBS
  AUC of viability dose-response curve: 442
[2]; RPMI 5 mM glucose + 10% FBS
  AUC of viability dose-response curve: 421
[2]; [5]
  AUC of viability dose-response curve: 429
[3]; HPLM + 10% dialyzed FBS
  AUC of viability dose-response curve: 396
[3]; RPMI 5 mM glucose + 10% FBS
  AUC of viability dose-response curve: 394
[3]; [5]
  AUC of viability dose-response curve: 397

## C[C@@H]1C(=O)OC2[C@H](O)[C@]34[C@H]5C[C@@H](C(C)(C)C)[C@]36[C@@H](OC(=O)[C@@H]6O)O[C@@]4(C(=O)O5)[C@]21O (stereo partly drawn)
[4]; [6]
  cell viability: 116%
[4]; [7]
  cell viability: 102%
[4]; [8]
  cell viability: 129%
[4]; [9]
  cell viability: 119%
[4]; [10]
  cell viability: 127%
[4]; [11]
  cell viability: 116%
[4]; [12]
  cell viability: 117%
[4]; [13]
  cell viability: 119%
[4]; [14]
  cell viability: 91.8%
[4]; [15]
  cell viability: 107%
[4]; [16]
  cell viability: 65.8%
[1]; HPLM + 10% dialyzed FBS
  AUC of viability dose-response curve: 450
[1]; RPMI 5 mM glucose + 10% FBS
  AUC of viability dose-response curve: 457
[1]; [5]
  AUC of viability dose-response curve: 457
[2]; HPLM + 10% dialyzed FBS
  AUC of viability dose-response curve: 452
[2]; RPMI 5 mM glucose + 10% FBS
  AUC of viability dose-response curve: 445
[2]; [5]
  AUC of viability dose-response curve: 450
[3]; HPLM + 10% dialyzed FBS
  AUC of viability dose-response curve: 451
[3]; RPMI 5 mM glucose + 10% FBS
  AUC of viability dose-response curve: 437
[3]; [5]
  AUC of viability dose-response curve: 424

## COc1ccc(-c2ccc3cc(C(=O)O)ccc3c2)cc1C12CC3CC(CC(C3)C1)C2
[1]; HPLM + 10% dialyzed FBS
  AUC of viability dose-response curve: 436
[1]; RPMI 5 mM glucose + 10% FBS
  AUC of viability dose-response curve: 441
[1]; [5]
  AUC of viability dose-response curve: 387
[2]; HPLM + 10% dialyzed FBS
  AUC of viability dose-response curve: 465
[2]; RPMI 5 mM glucose + 10% FBS
  AUC of viability dose-response curve: 447
[2]; [5]
  AUC of viability dose-response curve: 458
[3]; HPLM + 10% dialyzed FBS
  AUC of viability dose-response curve: 459
[3]; RPMI 5 mM glucose + 10% FBS
  AUC of viability dose-response curve: 468
[3]; [5]
  AUC of viability dose-response curve: 459

## C[C@]\12CCC(=O)\C=C1[C@@H]3C[C@@H]3[C@@H]4[C@@H]2CC[C@@]5(C)[C@H]4[C@@H]6C[C@@H]6[C@@]57CCC(=O)O7
[4]; [6]
  cell viability: 89.1%
[4]; [7]
  cell viability: 97.2%
[4]; [8]
  cell viability: 107%
[4]; [9]
  cell viability: 123%
[4]; [10]
  cell viability: 120%
[4]; [11]
  cell viability: 112%
[4]; [12]
  cell viability: 106%
[4]; [13]
  cell viability: 107%
[4]; [14]
  cell viability: 133%
[4]; [15]
  cell viability: 107%
[4]; [16]
  cell viability: 104%
[4]; RPMI 5 mM glucose + 10% FBS, 0.000781 µM
  cell viability: 98.6%
[4]; RPMI 5 mM glucose + 10% FBS, 0.00234 µM
  cell viability: 111%
[4]; RPMI 5 mM glucose + 10% FBS, 0.00702 µM
  cell viability: 115%
[4]; RPMI 5 mM glucose + 10% FBS, 0.0211 µM
  cell viability: 117%
[4]; RPMI 5 mM glucose + 10% FBS, 0.0632 µM
  cell viability: 137%
[4]; RPMI 5 mM glucose + 10% FBS, 0.19 µM
  cell viability: 146%
[4]; RPMI 5 mM glucose + 10% FBS, 0.569 µM
  cell viability: 124%
[4]; RPMI 5 mM glucose + 10% FBS, 1.71 µM
  cell viability: 134%
[4]; RPMI 5 mM glucose + 10% FBS, 5.12 µM
  cell viability: 119%
[4]; RPMI 5 mM glucose + 10% FBS, 15.4 µM
  cell viability: 125%
[4]; RPMI 5 mM glucose + 10% FBS, 46.1 µM
  cell viability: 146%
[1]; HPLM + 10% dialyzed FBS
  AUC of viability dose-response curve: 469
[1]; RPMI 5 mM glucose + 10% FBS
  AUC of viability dose-response curve: 477
[1]; [5]
  AUC of viability dose-response curve: 471
[2]; HPLM + 10% dialyzed FBS
  AUC of viability dose-response curve: 474
[2]; RPMI 5 mM glucose + 10% FBS
  AUC of viability dose-response curve: 468
[2]; [5]
  AUC of viability dose-response curve: 471
[3]; HPLM + 10% dialyzed FBS
  AUC of viability dose-response curve: 450
[3]; RPMI 5 mM glucose + 10% FBS
  AUC of viability dose-response curve: 451
[3]; [5]
  AUC of viability dose-response curve: 468

## O=C(Nc1cccc(Br)c1)c1cccc([S+](=O)([O-])N2CCCCCC2)c1
[1]; HPLM + 10% dialyzed FBS
  AUC of viability dose-response curve: 462
[1]; RPMI 5 mM glucose + 10% FBS
  AUC of viability dose-response curve: 460
[1]; [5]
  AUC of viability dose-response curve: 470
[2]; HPLM + 10% dialyzed FBS
  AUC of viability dose-response curve: 450
[2]; RPMI 5 mM glucose + 10% FBS
  AUC of viability dose-response curve: 457
[2]; [5]
  AUC of viability dose-response curve: 464
[3]; HPLM + 10% dialyzed FBS
  AUC of viability dose-response curve: 447
[3]; RPMI 5 mM glucose + 10% FBS
  AUC of viability dose-response curve: 436
[3]; [5]
  AUC of viability dose-response curve: 441
